Experimental data as given in patent US20040191239A1, “Treatment and prevention of reactive oxygen metabolite-mediated cellular damage” (priority 1999, published 2004).

Legend:
ROMs = settings: predictive example; about 10 μg/kg/day subcutaneous as in Example 3
Description: Histamine, a H2-receptor agonist, at approximately 10 μg/kg/day, in a pharmaceutically acceptable form is introduced by subcutaneous injection into a subject experiencing or about to experience MI. The above procedure is repeated daily for 7 days.
Histamine is administered to a patient presenting subendocardial myocardial infarction, as described in Example 3.

[1] = Histamine administration time: efficacy and side effects; settings: administered over longer than about 30 minutes
NADPH oxidase = NADPH oxidase (Homo sapiens, UniProt P04839); settings: substrate of the membrane-bound oxidase; cited from earlier work
[2] = cited from earlier work
[3] = system: brain tissue and cerebral vessels; settings: cited from earlier work
HCV = settings: cited from earlier work

NCCc1c[nH]cn1 [Histamine, histamine]
release or production of ROMs (ROMs): prevention of the release or production of ROMs | efficacy [1]: decreased or lack of efficacy

NC(=O)C1=CN([C@@H]2O[C@H](COP(=O)(O)OP(=O)(O)OC[C@H]3O[C@@H](n4cnc5c(N)ncnc54)[C@H](O)[C@@H]3O)[C@@H](O)[C@H]2O)C=CC1 [NADH]
Km (NADPH oxidase): 450 µM

NC(=O)C1=CN([C@@H]2O[C@H](COP(=O)(O)OP(=O)(O)OC[C@H]3O[C@@H](n4cnc5c(N)ncnc54)[C@H](OP(=O)(O)O)[C@@H]3O)[C@@H](O)[C@H]2O)C=CC1 [NADPH]
Km (NADPH oxidase): 45 µM

C#CCN(C)[C@H](C)Cc1ccccc1 [selegiline, L-deprenyl]
memory ([2]; 173 people, after six months): improved significantly | effect on the benefits of tacrine (Cognex) ([2]; another study, combination with tacrine): enhanced the benefits of tacrine | NO production ([3]; brain tissue and cerebral vessels): rapid increases in NO production | protection of the vascular endothelium ([3]; toxic effects of amyloid-beta peptide): protected the vascular endothelium

alpha-interferon
effectiveness in patients with HCV (HCV; chronic HCV infection): minimally effective | patients experiencing flu-like symptoms (HCV; in vivo): 60-80% | responding patients relapsing to a more progressive disease state (HCV; in vivo): approximately 70%
